This note sets out measurements from ChEMBL document CHEMBL5356986, “Research status of indole-modified natural products” (RSC Med Chem, 2023).

In brackets after ≈: the same amount, converted by molar mass. Where only a bound is given, the exact number is not on record here.

For one assay, the system named is Hep 3B2. The assay can be described thus: Cytotoxicity against human Hep3B cells assessed as inhibition of cell growth by MTT assay. In kind it is functional, cell-based.
For a further assay, the system named is A549. The assay can be described thus: Antiproliferative activity against human A549 cells assessed as cell growth inhibition measured after 72 hrs by MTT assay. It is filed as functional, cell-based. Particulars: A549, 72 h.
Assay [1] deals with HeLa. The assay can be described thus: Cytotoxicity against human HeLa cells assessed as reduction in cell viability. In kind it is functional, cell-based.
A further assay has as its system A2780. The assay can be described thus: Antiproliferative activity against human A2780 cells assessed as inhibition of cell growth. In kind it is functional, cell-based.
In assay [2] the test system is MCF7. In words: Antiproliferative activity against human MCF7 cells assessed as cell growth inhibition measured after 72 hrs by MTT assay. In kind it is functional, cell-based. The note with it: MCF7, 72 h. In general terms: Tetrazolium dyes change colour on reduction, which living cells bring about.
For the next assay, the system named is Bel-7402. In words: Cytotoxicity against human Bel-7402 cells measured after 72 hrs by MTT assay. Particulars: Bel-7402, 72 h. It is filed as functional, cell-based.
A further assay deals with PC-3. The assay can be described thus: Cytotoxicity against human PC-3 cells assessed as reduction in cell viability. In kind it is functional, cell-based.
The next assay has as its system LoVo. In words: Cytotoxicity against human LoVo cells incubated for 72 hrs by MTT assay. In kind it is functional, cell-based.
Assay [3] deals with Mycobacterium tuberculosis. The assay can be described thus: Antimycobacterial activity against Mycobacterium tuberculosis H37Rv assessed as reduction in bacterial cell growth. It is filed as functional.
The target of the next assay is Mu-type opioid receptor (Homo sapiens, UniProt P35372). In words: Inhibition of mu opioid receptor (unknown origin).
Sequence of Mu-type opioid receptor (P35372 whole entry): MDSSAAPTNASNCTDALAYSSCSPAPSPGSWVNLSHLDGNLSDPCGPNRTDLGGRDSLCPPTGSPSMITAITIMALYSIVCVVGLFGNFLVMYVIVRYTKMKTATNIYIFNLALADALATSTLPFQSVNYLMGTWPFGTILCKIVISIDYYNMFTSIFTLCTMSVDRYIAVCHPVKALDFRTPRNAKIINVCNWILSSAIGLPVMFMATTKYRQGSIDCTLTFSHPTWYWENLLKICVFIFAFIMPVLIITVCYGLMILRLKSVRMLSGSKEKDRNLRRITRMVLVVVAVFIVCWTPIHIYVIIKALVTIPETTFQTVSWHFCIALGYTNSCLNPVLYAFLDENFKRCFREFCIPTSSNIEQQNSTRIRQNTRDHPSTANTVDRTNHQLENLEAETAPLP
The target in a further assay is Acetylcholinesterase (Homo sapiens, UniProt P22303). In words: Inhibition of Acetylcholinesterase (unknown origin).
Sequence of Acetylcholinesterase (P22303 whole entry): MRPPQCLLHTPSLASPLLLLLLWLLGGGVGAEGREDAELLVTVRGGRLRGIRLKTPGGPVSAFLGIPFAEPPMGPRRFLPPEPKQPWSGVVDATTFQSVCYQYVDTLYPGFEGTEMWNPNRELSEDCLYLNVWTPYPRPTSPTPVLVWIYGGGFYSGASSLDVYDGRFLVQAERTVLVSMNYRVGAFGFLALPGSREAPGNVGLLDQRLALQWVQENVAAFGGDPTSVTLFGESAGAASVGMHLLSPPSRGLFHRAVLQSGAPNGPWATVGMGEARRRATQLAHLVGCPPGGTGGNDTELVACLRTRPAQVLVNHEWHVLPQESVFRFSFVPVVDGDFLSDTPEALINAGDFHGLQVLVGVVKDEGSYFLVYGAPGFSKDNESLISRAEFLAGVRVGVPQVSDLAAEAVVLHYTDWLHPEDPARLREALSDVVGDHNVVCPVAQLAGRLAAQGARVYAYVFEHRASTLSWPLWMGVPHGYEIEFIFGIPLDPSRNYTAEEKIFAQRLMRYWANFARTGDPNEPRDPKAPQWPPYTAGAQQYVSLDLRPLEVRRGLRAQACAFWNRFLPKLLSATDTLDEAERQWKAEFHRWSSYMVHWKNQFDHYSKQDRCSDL
The test system of assay [4] is SMMC-7721. The assay can be described thus: Cytotoxicity against human SMMC-7721 cells assessed as reduction in cell viability. It is filed as functional, cell-based.
The next assay concerns SK-BR-3. In words: Antiproliferative activity against human SK-BR-3 cells incubated for 72 hrs by MTT assay. It is filed as functional, cell-based. The note with it: SK-BR-3, 72 h.
Assay [5] relates to MCF7. In words: Antiproliferative activity against human MCF7 cells assessed as cell growth inhibition incubated for 6 days by SRB assay. In kind it is functional, cell-based. The note with it: MCF7, 144 h. (In general: In SRB staining, fixed cells bind dye roughly in proportion to their protein.)
Assay [6] relates to SMMC-7721. In words: Antiproliferative activity against human SMMC-7721 cells assessed as reduction in cell growth by SRB assay. In kind it is functional, cell-based.
In another assay the test system is CAMA-1. In words: Antiproliferative activity against human CAMA-1 cells assessed as cell growth inhibition. It is filed as functional, cell-based.
The next assay concerns MDA-MB-231. In words: Antiproliferative activity against human MDA-MB-231 cells assessed as cell growth inhibition. It is filed as functional, cell-based.
The test system of the next assay is MDA-MB-453. The assay can be described thus: Antiproliferative activity against human MDA-MB-453 cells assessed as reduction in cell growth after 72 hrs by MTT assay. In kind it is functional, cell-based. The note with it: MDA-MB-453, 72 h.
The test system of another assay is HOP-92. The assay can be described thus: Growth inhibition against human HOP-92 cells incubated for 48 hrs by sulforhodamine B assay. In kind it is functional.
For assay [7], the target named is Prostaglandin G/H synthase 2 (Homo sapiens, UniProt P35354). In words: Inhibition of COX-2 (unknown origin).
Sequence of Prostaglandin G/H synthase 2 (P35354 whole entry): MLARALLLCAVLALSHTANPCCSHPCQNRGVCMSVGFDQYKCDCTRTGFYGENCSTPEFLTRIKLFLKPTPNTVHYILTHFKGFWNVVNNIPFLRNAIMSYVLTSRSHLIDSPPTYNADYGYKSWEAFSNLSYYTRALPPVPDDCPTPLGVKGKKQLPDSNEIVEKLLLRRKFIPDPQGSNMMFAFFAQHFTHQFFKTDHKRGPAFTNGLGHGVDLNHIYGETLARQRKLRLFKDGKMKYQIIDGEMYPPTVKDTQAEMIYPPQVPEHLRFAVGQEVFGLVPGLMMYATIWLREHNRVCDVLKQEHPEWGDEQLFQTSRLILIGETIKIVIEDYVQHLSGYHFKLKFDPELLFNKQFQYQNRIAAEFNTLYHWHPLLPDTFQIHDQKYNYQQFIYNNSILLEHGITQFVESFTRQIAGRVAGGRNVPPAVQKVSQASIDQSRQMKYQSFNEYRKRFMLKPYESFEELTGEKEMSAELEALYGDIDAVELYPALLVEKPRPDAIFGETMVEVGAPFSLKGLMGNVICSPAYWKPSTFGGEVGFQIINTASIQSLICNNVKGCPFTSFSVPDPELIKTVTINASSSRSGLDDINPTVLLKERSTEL
A further assay deals with HCT-116. The assay can be described thus: Antiproliferative activity against human HCT-116 cells assessed as inhibition of cell growth. In kind it is functional, cell-based.
For the next assay, the system named is C-33-A. The assay can be described thus: Antiproliferative activity against human C-33-A cells assessed as reduction in cell viability measured after 48 hrs by MTT assay. It is filed as functional, cell-based.
For a further assay, the system named is SiHa. In words: Antiproliferative activity against human SiHa cells assessed as inhibition of cell growth by MTT assay. In kind it is functional, cell-based.
Assay [8] can be described thus: Antiproliferative activity against human CaLo cells assessed as reduction in cell viability. It is filed as functional, cell-based.
A further assay has as its system RD. In words: Antiproliferative activity against human RD cells assessed as cell growth inhibition measured after 72 hrs by MTT assay. It is filed as functional, cell-based.
Assay [9] concerns SGC-7901. The assay can be described thus: Cytotoxicity against human SGC-7901 cells assessed as reduction in cell viability measured after 48 hrs by MTT colorimetric assay. The note with it: SGC-7901, 48 h. In kind it is functional, cell-based.
For assay [10], the system named is SGC-7901. In words: Antiproliferative activity against human SGC-7901 cells assessed as cell growth inhibition. It is filed as functional, cell-based.
Assay [11] concerns MCF7. In words: Antiproliferative activity against human MCF7 cells assessed as inhibition of cell growth incubated for 24 hrs by MTT assay. In kind it is functional, cell-based. The note with it: MCF7, 24 h.
Assay [12] relates to HeLa. The assay can be described thus: Antiproliferative activity against human HeLa cells assessed as reduction in cell growth measured after 48 hrs by MTT assay. It is filed as functional, cell-based.
Assay [13] has as its system HepG2. The assay can be described thus: Antiproliferative activity against human HepG2 cells assessed as inhibition of cell proliferation after 72 hrs by MTT assay. In kind it is functional, cell-based. Particulars: HepG2, 72 h.
The test system of assay [14] is HepG2. The assay can be described thus: Cytotoxicity against human HepG2 cells assessed as cell growth inhibition. It is filed as functional, cell-based.
Assay [15] concerns HepG2. The assay can be described thus: Cytotoxicity against human HepG2 cells assessed as reduction in cell viability measured after 48 hrs by MTT colorimetric based assay. In kind it is functional. The note with it: HepG2, 48 h.
For a further assay, the target named is Alpha glucosidase (Homo sapiens, UniProt O43451+P10253+P14410+Q2M2H8). The assay can be described thus: Inhibition of Alpha-glucosidase (unknown origin) spectrophotometric analysis. In kind it is protein assay.

For the compound `O=C(/C=C(O)/C=C/c1c[nH]c2ccccc12)/C=C/c1c[nH]c2ccccc12`, the IC50 (usually the concentration that gives 50% inhibition) in the assay with Hep 3B2 turned out to be 14 µM.
Take `COc1cc(C2CCCCc3c2ccc2c3ccn2C)cc(OC)c1OC` (centres undefined): the IC50 came to 22 nM with A549; 56 nM in the assay on HeLa [1]; 37 nM in the assay with A2780; 51 nM in the assay with MCF7 [2]; 39 nM in the assay with Bel-7402; 47 nM with PC-3. The compound further registered a half-inhibitory concentration (IC50) in the assay on LoVo of 49 nM.
Turning to `O=C(c1ccncc1)n1nc(-c2c[nH]c3ccccc23)cc1-c1cc2ccccc2oc1=O`, the MIC (as a rule, the least concentration at which growth counts as inhibited) in assay [3] was determined as 2.02 µM (≈ 0.874 µg/mL).
`O=C(N[C@@H]1CC[C@@]2(O)[C@H]3Cc4ccc(O)c5c4[C@@]2(CCN3CC2CC2)[C@H]1O5)c1cc2ccccc2[nH]1` had an IC50 at Mu-type opioid receptor of 0.21 nM.
Compound `O=C1Cc2cc(OCc3ccc(F)cc3)ccc2C=C1C(=O)NCCc1c[nH]c2ccccc12` displayed a concentration for half-maximal inhibition (IC50) against Acetylcholinesterase of 160 nM.
On to `Cc1ccc2[nH]c3c(c2c1)C[C@]1(C)[C@H]2CC=C4[C@@H]5[C@@H](C)[C@H](C)CC[C@]5(C(=O)NCCCN(C)C)CC[C@@]4(C)[C@]2(C)CC[C@H]1C3(C)C`, for which the 50% inhibitory concentration (IC50) with SMMC-7721 [4] came to 1080 nM.
As to `CC[C@@]1(O)C(=O)OCc2c1cc1n(c2=O)Cc2cc3ccccc3nc2-1` [CAMPTOTHECIN], the half-inhibitory concentration (IC50) in the assay on SK-BR-3 was less than 10 nM; with MCF7 [5] it was less than 10 nM; in the assay on SMMC-7721 [6], 3.95 µM; with CAMA-1 it was 70 nM; in the assay on MDA-MB-231 it was less than 10 nM; with MDA-MB-453, less than 10 nM.
On to `Cc1cc(=O)oc2c(C)c(O)c(-c3cc4ccc(F)cc4[nH]3)cc12`, for which the concentration for 50% growth inhibition (GI50) – broadly, the concentration giving 50% growth inhibition – in the assay on HOP-92 amounted to 950 nM.
Compound `CC1=NN(c2ccccc2)C(=O)/C1=C\c1cn(CCCOc2cc(O)c3c(=O)cc(-c4ccccc4)oc3c2)c2ccccc12` came in with an IC50 in assay [7] of 700 nM.
Consider `COc1cc(C(=O)/C(C)=C/c2c[nH]c3cc(F)ccc23)cc(OC)c1OCCN`, for which the IC50 in the assay on HCT-116 was 3.2 nM.
Turning to `O=C1C(Cl)=C(NC(Cc2c[nH]c3ccccc23)C(=O)O)C(=O)c2ccccc21` (centres undefined), the 50% inhibitory concentration (IC50) was 3 nM with C-33-A, 3.2 µM in the assay on SiHa and 2690 nM in [8].
In the case of `CC(=O)O[C@H]1C(=O)[C@@]2(C)[C@H]([C@H](OC(=O)c3ccccc3)[C@]3(O)C[C@H](OC(=O)[C@H](O)[C@@H](NC(=O)c4ccccc4)c4ccccc4)C(C)=C1C3(C)C)[C@]1(OC(C)=O)CO[C@@H]1C[C@@H]2O` [PACLITAXEL], the 50% inhibitory concentration (IC50) in the assay on RD was greater than 10 µM; with SGC-7901 [9], 14.3 µM.
As for `O=C(c1cc2ccc(Cl)cc2n1Cc1cccc2ccccc12)N(CCO)[C@@H]1CC(=O)N2C[C@@H]3CCCN4CCC[C@@H]([C@H]34)[C@H]2C1`, the results for the 50% inhibitory concentration (IC50) with SGC-7901 [10], in the assay on MCF7 [11] and in the assay on HeLa [12] were 1100 nM, 1200 nM and 900 nM, respectively.
Turning to `COc1cc(/C=N/NC(=O)c2cn(Cc3ccccc3)c3ccccc23)cc(OC)c1OC`, in the assay on HepG2 [13], the half-maximal inhibitory concentration (IC50) amounted to 0.63 nM.
For `CC(C)COC(=O)[C@]12CC[C@@H](C)[C@H](C)[C@H]1C1=CC(=O)[C@@H]3[C@@]4(C)Cc5c([nH]c6ccc(Cl)cc56)C(C)(C)[C@@H]4CC[C@@]3(C)[C@]1(C)CC2`, the IC50 in the assay with HepG2 [14], in the assay on HepG2 [15] and with SGC-7901 [9] was 3.12 µM throughout.
For the compound `COc1ccc2c(CSC(=S)NCCc3c[nH]c4ccccc34)cc(=O)oc2c1`, at Alpha glucosidase, the half-inhibitory concentration (IC50) worked out at 85 µM.
